Data on 1 compound can be found in US7005425B2, “Method for treating arrhythmias” (CV Therapeutics, Inc., priority 2002, dated 2006).

For the assay, the system named is awake rats. Briefly: Telemetry studies of heart rate in awake rats. The assay is classed as in vivo, Rats (Sprague Dawley). As to conditions: CVT-510 20 μg/kg ip alone. How it is done: Rats (Sprague Dawley) weighing 300–400 gms were purchased from Simonsen laboratories. CVT-3619 was dissolved in DMSO and further diluted in saline. CVT-510 was dissolved in saline. Ketamine was purchased from Fort Dodge Animal Health, Xylazine from Bayer and Acepromazine Maleate from Fermenta Animal Health Co. Metoprolol and propranolol were purchased from SIGMA. Esmolol was obtained from a local pharmacy.
For these studies, rats were instrumented with radiotelemetered transmitters (Data Sciences) at least 3 weeks prior to experimentation. Animals were anesthetized by peritoneal injection of a “cocktail” (1 ml/kg) containing Ketamine (75 mg/ml), Xylazine (5 mg/ml), and Acepromazine (1 mg/ml). After 20–30 minutes of induction of anesthesia, a midline laparotomy was performed. The transmitter for recordings of ECG, blood pressure and body temperature was placed in the abdominal cavity, and secured to the abdominal muscles. Two electrocardiographic leads were tunneled through the subcutaneous—one toward the upper left shoulder and the other to the right thigh, and secured with sutures. A fluid filled sensor catheter was inserted in the descending aorta above the iliac bifurcation for measurement of blood pressure. The tip of the telemetry catheter was located in the abdominal aorta just caudal to the renal arteries. Once the transmitter and leads were in place and determined to be functioning properly, the abdominal wall was sutured. After recovery from anesthesia, the rats were housed individually in cages placed on their respective receivers. The ECG, blood pressure and temperature were recorded and heart rate measured by a Dataquest ART Gold system (Version 2.2; Data Sciences Intl). The system consisted of a transmitter, i.e., biopotential sensor (Model TL11M2-C50-PXT), receivers (Model RPC-1), a consolidation matrix (BCM 100), a personal computer (Compaq DeskPro Series 3574) and Dataquest 4 software. Heart rate, blood pressure and temperature were measured at 5-minute intervals. Each recording lasted 10 seconds and all cardiac cycles within this period were averaged. Animals were given various drugs in a randomized manner after recording the baseline data for at least two hours.
A subgroup of animals was implanted with osmotic pumps containing CVT-510 for combination experiments. […]
The slowing of heart rate caused by each treatment was quantified by determining the area under the curve (AUC), using the trapezoidal method for calculations. Data used for analysis was the area under/over the curve calculated using change form baseline data (untreated animals). The data was analyzed for the magnitude as well as the duration of bradycardia caused by each treatment. […]

As for `OC[C@H]1O[C@@H](n2cnc3c(N[C@@H]4CCOC4)ncnc32)[C@H](O)[C@@H]1O` [CVT-510, 6-(3-(R)-aminotetrahydrofuranyl)purine riboside], the “effect on heart rate (FIG. 3)” value is given as “transiently lowers the heart rate below baseline levels” and the “effect on heart rate (FIG. 4)” value is on record as “slowed the heart rate in a dose dependent manner”.
